Patent publication US8197838B2, “Sustained release systems of ascorbic acid phosphate” (Advanced Technologies and Regenerative Medicine, LLC., priority 2008, dated 2012)
Values joined by “and” are separate entries in the source; they are usually repeats but may differ in a detail not shown here. Equal entries are not always repeated.

Tests used:
[1] = AZP drying condition evaluation (weight loss on heating); assay type: physicochemical; conditions: for Total Weight loss after 2nd Heat: cumulative; for Weight loss after 1st Heat: Trisodium Salt
Procedure: The following drying conditions for 2-Phospha-L-ascorbic Acid Trisodium Salt (AZP), (>98% (HPLC), Fluka, Lot#: 1322473 52607420) were tested: 90° C./24 hrs. under vacuum, 160° C./30 minutes under dry nitrogen blanket, and 200° C./30 minutes under dry nitrogen blanket. The times tested include estimating the compounding time and time for sample collection and cooling.
6 glass vials were pre-dried in a vacuum oven at 160° C. for 30 minutes and transferred to a glove box purged with dry nitrogen gas. AZP powder was weighed in each vial (see Table 1) in the glove box.
(§1) The dried AZP powder vials were sealed with Parafilm and stored under dry a nitrogen blanket until evaluation. The weight loss % was cumulative over both heating conditions. The samples under RT/N2 were stored in nitrogen box. The samples were evaluated for color change of the course of the heating conditions. Color change is an indicator of AZP degradation. […] The higher temperature and shorter time could have the same drying effects on the weight loss. […] Therefore 160° C. and 30 minutes were selected as the upper limits of the drying and processing condition

[2] = stated by material safety data sheet from an AZP manufacturer; cited from earlier work
[3] = Color change as indicator of AZP degradation; assay type: physicochemical
Procedure: as §1
Films were prepared as follow: The platens of a compression molding instrument (Carver Laboratory Press, Model: 2696) were pre-heated to 205° C. About 3.5 grams of the composition were placed on the platens and heated for 5 minutes. Pressure was applied (about 20,000 lbs) for about 2 minutes. The heating was stopped and the platens and film were allowed to cool to RT under water cooling and continued pressure.

2-Phospha-L-ascorbic Acid Trisodium Salt [AZP]
Total Weight loss after 2nd Heat ([1]; 1st 90° C./Vac 24 hours, 2nd 160° C./N2/air 30 min): 6.25 wt % | Total Weight loss after 2nd Heat ([1]; 1st 90° C./Vac 24 hours, 2nd 200° C./N2/air 30 min): 6.75 wt % | Total Weight loss after 2nd Heat ([1]; 1st 90° C./Vac 24 hours, 2nd RT/N2 30 min): 4.41 wt % | Total Weight loss after 2nd Heat ([1]; 1st RT/N2 24 hours, 2nd 160° C./N2/air 30 min): 10.06 wt % | Total Weight loss after 2nd Heat ([1]; 1st RT/N2 24 hours, 2nd 200° C./N2/air 30 min): 8.10 wt % | Total Weight loss after 2nd Heat ([1]; 1st RT/N2 24 hours, 2nd RT/N2 30 min (control)): 0.25 wt % | Weight loss after 1st Heat ([1]; 1st heat for 24 hours 90° C./Vac): 8.09 wt % and 7.59 wt % and 6.43 wt % | Weight loss after 1st Heat ([1]; 1st heat for 24 hours RT/N2): 1.18 wt % and 1.76 wt % and 1.00 wt % | Moisture content of AZP as received ([1]; as received): up to 7.5 % by weight | Degradation temperature of AZP [2]: about 260 °C | Color change of AZP powder (indicator of degradation) ([3]; sample number 6, 90° C./Vac 24 hrs then heated to 200° C.): darkest yellow color | Color change of AZP powder (indicator of degradation) ([3]; samples heated at 90° C./24 hrs.): very slight yellow color | Color change of AZP powder (indicator of degradation) ([3]; samples heated for no more than 30 minutes): retained the original white color | Color change of AZP powder (indicator of degradation) ([3]; samples that underwent 2 heat treatments): slightly yellow color
